According to patent publication US20230099031A1, “BIFUNCTIONAL AGENTS FOR PROTEIN RECRUITMENT AND/OR DEGRADATION” (Orionis Biosciences, Inc., priority 2019, published 2023):

Legend:
Format in all cases: cell-based
SALL4 = target: T1, SALL4 (Homo sapiens, UniProt Q96SW2+Q9UJQ4); experiment: Recruitment Assay (MAPPIT-like): SALL4 recruitment, pSEL-SALL4+pMG1-CRBN; settings: recruitment of SALL4, protocol of Example 2; read-out: EC50_SALL4
T1 construct: Full size proteins are fused for each of the target proteins tested; expressed in transfected cells; host or cells: HEK293T
Experimental: (§1) In this experimental set-up, cells are transfected with a construct encoding a CRBN-fusion protein and another one encoding a substrate-fusion protein. Test compound activity is assessed with increasing concentrations of test compounds (dose-response studies) to monitor the ability to promote CRBN-ligand-induced protein interaction.
(§2) Full size proteins are fused for each of the target proteins tested, except in the case of IKZF1 where isoform 7 is used, and BRD4, where isoform 3 is applied. For the study, the following construct combinations are used: IKZF1 recruitment: pSEL-CRBN+pMG1-IKZF1(isoform 7); ASS1 recruitment: pSEL-CRBN+pMG1-ASS1; SALL4 recruitment: pSEL-SALL4+pMG1-CRBN; DHFR recruitment: pCLG-DHFR+pMG1-CRBN; ESR1 recruitment: pSEL-CRBN+pMG1-ESR1; BRD4 recruitment: pSEL-CRBN+pMG1-BRD4(isoform 3). Cells are treated with erythropoietin (Epo; where pSEL-type receptor fusions constructs are used) or leptin (in the case pCLG-type receptor fusion constructs are applied) without or with the indicated dose of test compound at 24 hours after transfection. Luciferase activity is measured 24 hours after test compound treatment using the Luciferase Assay System kit (PROMEGA, Madison, Wis.) with an Ensight plate reader (PERKIN ELMER LIFE SCIENCES, Waltham, Mass.). Data points depict fold induction of the average luciferase activity of triplicate samples from Epo or leptin+test compound treated cells versus Epo or leptin only treated cells. Error bars represent standard deviations. Curves are fit using 4-parameter nonlinear regression in […] PRISM software.

ASS1 = target: T2, ASS1 (Homo sapiens, UniProt P00966+Q96SW2); experiment: Recruitment Assay (MAPPIT-like): ASS1 recruitment, pSEL-CRBN+pMG1-ASS1; settings: recruitment of ASS1, protocol of Example 2; for EC50: read-out: EC50_ASS1
T2 construct: Full size proteins are fused for each of the target proteins tested; expressed in transfected cells; host or cells: HEK293T
Experimental: as §1, §2

CRBN = target: T3, CRBN (Homo sapiens, UniProt Q96SW2); experiment: Competition Assay: MAPPIT-like, competition with trimethoprim-lenalidomide hybrid ligand for binding to CRBN in HEK293T cells; settings: protocol and reagents of Example 1; read-out: IC50 Competition
T3 construct: expressed in transfected cells; host or cells: HEK293T

SMILES	EC50 (SALL4)	EC50_ASS1 (M) (ASS1)	IC50 (CRBN)	EC50 (ASS1)
Cc1nc2ccc(C#N)c(N)c2c(=O)n1C1CCC(=O)NC1=O (centres unmarked) [Compound C10001, 5-amino-3-(2,6-dioxo-3-piperidyl)-2-methyl-4-oxo-quinazoline-6-carbonitrile]	1.25 µM	>>		
CN(C)C1c2ccccc2C(=O)N1C1CCC(=O)NC1=O (centres unmarked) [Compound C10981, 3-[1-(dimethylamino)-3-oxo-isoindolin-2-yl]piperidine-2,6-dione]	1.46 µM	>>	7.81 µM	
O=C1CCC(n2nnc3ccccc3c2=O)C(=O)N1 (centres unmarked) [Compound C21223, 3-(4-oxo-1,2,3-benzotriazin-3-yl)piperidine-2,6-dione]	0.517 µM	>>	2.29 µM	
COCC(=O)Nc1cccc2c1CN(C1CCC(=O)NC1=O)C2=O (centres unmarked) [Compound C22564, N-[2-(2,6-dioxo-3-piperidyl)-1-oxo-isoindolin-4-yl]-2-methoxy-acetamide]	0.873 µM	>>	1.67 µM	
CCOC(=O)Nc1cccc2c1CN(C1CCC(=O)NC1=O)C2=O (centres unmarked) [Compound C22622, ethyl N-[2-(2,6-dioxo-3-piperidyl)-1-oxo-isoindolin-4-yl]carbamate]	0.121 µM	>>	0.225 µM	
O=C1CCC(N2Cc3cccc(F)c3C2=O)C(=O)N1 (centres unmarked) [Compound C23066, 3-(7-fluoro-1-oxo-isoindolin-2-yl)piperidine-2,6-dione]	0.0882 µM	>>	0.248 µM	
O=C1CCC(N2Cc3ccc(O)cc3C2=O)C(=O)N1 (centres unmarked) [Compound C28928, 3-(6-hydroxy-1-oxo-isoindolin-2-yl)piperidine-2,6-dione]		>>		
CC(=O)Nc1ccc2c(c1)CN(C1CCC(=O)NC1=O)C2=O (centres unmarked) [Compound C29361, N-[2-(2,6-dioxo-3-piperidyl)-1-oxo-isoindolin-5-yl]acetamide]	0.186 µM	>>	1.43 µM	
CC(=O)NC1c2ccccc2C(=O)N1C1CCC(=O)NC1=O (centres unmarked) [Compound C33779, N-[2-(2,6-dioxo-3-piperidyl)-3-oxo-isoindolin-1-yl]acetamide]	3.03 µM		49.4 µM	
CC(=O)NCCNc1ccc2c(c1)CN(C1CCC(=O)NC1=O)C2=O (centres unmarked) [Compound C35745, N-[2-[[2-(2,6-dioxo-3-piperidyl)-1-oxo-isoindolin-5-yl]amino]ethyl]acetamide]	2.63 µM		11.2 µM	
O=C1CCC(N2Cc3cc(NCCNC(=O)Nc4ccccc4)ccc3C2=O)C(=O)N1 (centres unmarked) [Compound C35751, 1-[2-[[2-(2,6-dioxo-3-piperidyl)-1-oxo-isoindolin-5-yl]amino]ethyl]-3-phenyl-urea]	0.232 µM		0.486 µM	1.45 µM
CCOC(=O)NCCNc1ccc2c(c1)CN(C1CCC(=O)NC1=O)C2=O (centres unmarked) [Compound C35754, ethyl N-[2-[[2-(2,6-dioxo-3-piperidyl)-1-oxo-isoindolin-5-yl]amino]ethyl]carbamate]	0.278 µM	>>	0.737 µM	
NC(=O)c1cccc(NC(=O)CNc2ccc3c(c2)CN(C2CCC(=O)NC2=O)C3=O)c1 (centres unmarked) [Compound C35811, 3-[[2-[[2-(2,6-dioxo-3-piperidyl)-1-oxo-isoindolin-5-yl]amino]acetyl]amino]benzamide]	0.641 µM	>>	2.44 µM	
Cc1cccc2c(=O)n(C3CCC(=O)NC3=O)nnc12 (centres unmarked) [Compound C35830, 3-(8-methyl-4-oxo-1,2,3-benzotriazin-3-yl)piperidine-2,6-dione]	0.588 µM		3.46 µM	5.56 µM
O=C1CCC(N2Cc3ncccc3C2=O)C(=O)N1 (centres unmarked) [Compound C47959, 3-(5-oxo-7H-pyrrolo[3,4-b]pyridin-6-yl)piperidine-2,6-dione]	0.441 µM	>>	2.57 µM	
O=C(O)CNc1ccc2c(c1)CN(C1CCC(=O)NC1=O)C2=O (centres unmarked) [Compound C47995, 2-[[2-(2,6-dioxo-3-piperidyl)-1-oxo-isoindolin-5-yl]amino]acetic acid]	0.518 µM	>>	3.71 µM	
O=C(O)CNc1cccc2c1C(=O)N(C1CCC(=O)NC1=O)C2 (centres unmarked) [Compound C47998, 2-[[2-(2,6-dioxo-3-piperidyl)-3-oxo-isoindolin-4-yl]amino]acetic acid]	2.17 µM		6.59 µM	
N#Cc1ccc2c(c1)CN(C1CCC(=O)NC1=O)C2=O (centres unmarked) [Compound C48005, 2-(2,6-dioxo-3-piperidyl)-1-oxo-isoindoline-5-carbonitrile]	0.595 µM		1.73 µM	
O=C1CCC(N2Cc3cc(-c4ccccc4)ccc3C2=O)C(=O)N1 (centres unmarked) [Compound C48016, 3-(1-oxo-5-phenyl-isoindolin-2-yl)piperidine-2,6-dione]	0.122 µM		0.173 µM	
O=C1CCC(N2Cc3ccc(-c4ccccc4)cc3C2=O)C(=O)N1 (centres unmarked) [Compound C48018, 3-(1-oxo-6-phenyl-isoindolin-2-yl)piperidine-2,6-dione]	0.395 µM		0.228 µM	
Cc1ccc(NC(=O)NCc2cc(C)c3c(c2)CN(C2CCC(=O)NC2=O)C3=O)cc1Cl (centres unmarked) [Compound C58181, 1-(3-chloro-4-methyl-phenyl)-3-[[2-(2,6-dioxo-3-piperidyl)-7-methyl-1-oxo-isoindolin-5-yl]methyl]urea]		>>	0.0291 µM	
O=C1CCC(N2C(=O)C3=C(C2=O)c2ccccc2CC3)C(=O)N1 (centres unmarked) [Compound C64340, 2-(2,6-dioxo-3-piperidyl)-4,5-dihydrobenzo[e]isoindole-1,3-dione]	1.49 µM		2500 µM	
O=C1CCC(N2Cc3cc(Nc4ncccn4)ccc3C2=O)C(=O)N1 (centres unmarked) [Compound C80369, 3-[1-oxo-5-(pyrimidin-2-ylamino)isoindolin-2-yl]piperidine-2,6-dione]			0.0415 µM	1.29 µM
O=C1CCC(N2Cc3cc(Nc4ncnc5ccccc45)ccc3C2=O)C(=O)N1 (centres unmarked) [Compound C80373, 3-[1-oxo-5-(quinazolin-4-ylamino)isoindolin-2-yl]piperidine-2,6-dione]		>>	0.892 µM	
O=C1CCC(N2Cc3ccc(Nc4ncc5c(n4)COC5)cc3C2=O)C(=O)N1 (centres unmarked) [Compound C80391, 3-[6-(5,7-dihydrofuro[3,4-d]pyrimidin-2-ylamino)-1-oxo-isoindolin-2-yl]piperidine-2,6-dione]	0.152 µM		0.163 µM	
O=C1CCC(N2Cc3ccc(NC(=O)c4cnc5nccn5c4)cc3C2=O)C(=O)N1 (centres unmarked) [Compound C80396, N-[2-(2,6-dioxo-3-piperidyl)-3-oxo-isoindolin-5-yl]imidazo[1,2-a]pyrimidine-6-carboxamide]	1.38 µM		2.63 µM	
CC(Nc1ccc2c(c1)C(=O)N(C1CCC(=O)NC1=O)C2)C(=O)O (centres unmarked) [Compound C84970, 2-[[2-(2,6-dioxo-3-piperidyl)-3-oxo-isoindolin-5-yl]amino]propanoic acid]	1.01 µM		1.42 µM	
O=C1CCC(N2Cc3ccccc3C2)C(=O)N1 (centres unmarked) [Compound C87699, 3-isoindolin-2-ylpiperidine-2,6-dione]	4.82 µM		19.6 µM	
O=C1CCC(N2C(=O)c3ccccc3C2=O)C(=O)N1 (centres unmarked) [THL, Thalidomide, reference compound]		>>		
